tested on: Pythium ultimum; assay: Threshold concentration test for use of the compounds against Pythium ultimum (infested soil, garden peas); type: in vivo; parameters: key to root evaluation (1-4): 4: white roots without fungous necrosis; 3: white roots, minor fungous necrosis; 2: brown roots, already more pronounced fungous necrosis; 1: heavy fungous necrosis, roots rotted; conditions: 20 mg/l soil; 3 weeks
Method: Threshold concentration test for use of the compounds against Pythium ultimum
A 20% concentration of certain pulverulent active agents as listed below were mixed in uniform manner into a soil which had been heavily infested by Pythium ultimum. The thus treated soil was then placed into clay dishes of a capacity of 0.5 l earth. Without any intermediate time lapse 20 grain of garden peas (Pisum sativum L. convar. medullare Alef.) of the type "Wunder von Kelvedon" were then seeded into each of the clay dishes. After a cultivation period of three weeks at 20° to 24° C. in a hothouse the number of sound peas was determined and a root evaluation was carried out. The active agents amounts and results appear from the following table.
The root evaluation was carried out on a scale from 1 to 4 as follows: […]

Structure (SMILES)	root evaluation (1-4)
C=CCNC(=O)c1nnc(S(C)(=O)=O)s1 [5-methylsulfonyl-1,3,4-thiadiazole-2-carboxylic acid-allylamide]	4
CN(C)C(=O)c1nnc(S(C)(=O)=O)s1 [5-methylsulfonyl-1,3,4-thiadiazole-2-carboxylic acid-dimethylamide]	4
C=CCNC(=O)c1nnc(S(=O)(=O)CCC)s1 [5-propylsulfonyl-1,3,4-thiadiazole-2-carboxylic acid-allylamide]	3
CCCS(=O)(=O)c1nnc(C(=O)N(C)C)s1 [5-propylsulfonyl-1,3,4-thiadiazole-2-carboxylic acid-dimethylamide]	2

same assay, conditions: 20 mg/l soil; 20 grains per dish; 3 weeks at 20-24° C.

Structure (SMILES)	number of sound peas
C=CCNC(=O)c1nnc(S(C)(=O)=O)s1 [5-methylsulfonyl-1,3,4-thiadiazole-2-carboxylic acid-allylamide]	19
CN(C)C(=O)c1nnc(S(C)(=O)=O)s1 [5-methylsulfonyl-1,3,4-thiadiazole-2-carboxylic acid-dimethylamide]	18
C=CCNC(=O)c1nnc(S(=O)(=O)CCC)s1 [5-propylsulfonyl-1,3,4-thiadiazole-2-carboxylic acid-allylamide]	13
CCCS(=O)(=O)c1nnc(C(=O)N(C)C)s1 [5-propylsulfonyl-1,3,4-thiadiazole-2-carboxylic acid-dimethylamide]	17

same assay, conditions: 40 mg/l soil; 3 weeks

Structure (SMILES)	root evaluation (1-4)
C=CCNC(=O)c1nnc(S(C)(=O)=O)s1 [5-methylsulfonyl-1,3,4-thiadiazole-2-carboxylic acid-allylamide]	4
CN(C)C(=O)c1nnc(S(C)(=O)=O)s1 [5-methylsulfonyl-1,3,4-thiadiazole-2-carboxylic acid-dimethylamide]	4
C=CCNC(=O)c1nnc(S(=O)(=O)CCC)s1 [5-propylsulfonyl-1,3,4-thiadiazole-2-carboxylic acid-allylamide]	4
CCCS(=O)(=O)c1nnc(C(=O)N(C)C)s1 [5-propylsulfonyl-1,3,4-thiadiazole-2-carboxylic acid-dimethylamide]	4

same assay, conditions: 40 mg/l soil; 20 grains per dish; 3 weeks at 20-24° C.

Structure (SMILES)	number of sound peas
C=CCNC(=O)c1nnc(S(C)(=O)=O)s1 [5-methylsulfonyl-1,3,4-thiadiazole-2-carboxylic acid-allylamide]	18
CN(C)C(=O)c1nnc(S(C)(=O)=O)s1 [5-methylsulfonyl-1,3,4-thiadiazole-2-carboxylic acid-dimethylamide]	20
C=CCNC(=O)c1nnc(S(=O)(=O)CCC)s1 [5-propylsulfonyl-1,3,4-thiadiazole-2-carboxylic acid-allylamide]	15
CCCS(=O)(=O)c1nnc(C(=O)N(C)C)s1 [5-propylsulfonyl-1,3,4-thiadiazole-2-carboxylic acid-dimethylamide]	20

same assay, conditions: 80 mg/l soil; 3 weeks

Structure (SMILES)	root evaluation (1-4)
C=CCNC(=O)c1nnc(S(C)(=O)=O)s1 [5-methylsulfonyl-1,3,4-thiadiazole-2-carboxylic acid-allylamide]	4
CN(C)C(=O)c1nnc(S(C)(=O)=O)s1 [5-methylsulfonyl-1,3,4-thiadiazole-2-carboxylic acid-dimethylamide]	4
C=CCNC(=O)c1nnc(S(=O)(=O)CCC)s1 [5-propylsulfonyl-1,3,4-thiadiazole-2-carboxylic acid-allylamide]	4
CCCS(=O)(=O)c1nnc(C(=O)N(C)C)s1 [5-propylsulfonyl-1,3,4-thiadiazole-2-carboxylic acid-dimethylamide]	4

same assay, conditions: 80 mg/l soil; 20 grains per dish; 3 weeks at 20-24° C.

Structure (SMILES)	number of sound peas
C=CCNC(=O)c1nnc(S(C)(=O)=O)s1 [5-methylsulfonyl-1,3,4-thiadiazole-2-carboxylic acid-allylamide]	18
CN(C)C(=O)c1nnc(S(C)(=O)=O)s1 [5-methylsulfonyl-1,3,4-thiadiazole-2-carboxylic acid-dimethylamide]	18
C=CCNC(=O)c1nnc(S(=O)(=O)CCC)s1 [5-propylsulfonyl-1,3,4-thiadiazole-2-carboxylic acid-allylamide]	15
CCCS(=O)(=O)c1nnc(C(=O)N(C)C)s1 [5-propylsulfonyl-1,3,4-thiadiazole-2-carboxylic acid-dimethylamide]	19

tested on: Tilletia caries; assay: Treatment of oat seeds infested with Tilletia caries (spore germination); type: in vivo; conditions: 10 g active agent per 100 kg

Structure (SMILES)	% activity [%]
C=CCNC(=O)c1nnc(S(=O)(=O)CCC)s1 [5-propylsulfonyl-1,3,4-thiadiazole-2-carboxylic acid-allylamide]	99.3

same assay, conditions: 20 g active agent per 100 kg

Structure (SMILES)	% activity [%]
C=CCNC(=O)c1nnc(S(C)(=O)=O)s1 [5-methylsulfonyl-1,3,4-thiadiazole-2-carboxylic acid-allylamide]	100
C=CCNC(=O)c1nnc(S(=O)(=O)CCC)s1 [5-propylsulfonyl-1,3,4-thiadiazole-2-carboxylic acid-allylamide]	99.7
CCCS(=O)(=O)c1nnc(C(=O)N(C)C)s1 [5-propylsulfonyl-1,3,4-thiadiazole-2-carboxylic acid-dimethylamide]	100

same assay, conditions: 50 g active agent per 100 kg

Structure (SMILES)	% activity [%]
C=CCNC(=O)c1nnc(S(C)(=O)=O)s1 [5-methylsulfonyl-1,3,4-thiadiazole-2-carboxylic acid-allylamide]	100
C=CCNC(=O)c1nnc(S(=O)(=O)CCC)s1 [5-propylsulfonyl-1,3,4-thiadiazole-2-carboxylic acid-allylamide]	100
CCCS(=O)(=O)c1nnc(C(=O)N(C)C)s1 [5-propylsulfonyl-1,3,4-thiadiazole-2-carboxylic acid-dimethylamide]	100

tested on: Piricularia oryzae; assay: not given; type: in vivo; conditions: concentration of active agent 0.02 (percentages); 5 days

Structure (SMILES)	% activity [%]
CN(C)C(=O)c1nnc(S(C)(=O)=O)s1 [5-methylsulfonyl-1,3,4-thiadiazole-2-carboxylic acid-dimethylamide]	91

same assay, conditions: concentration of active agent 0.1 (percentages); 5 days

Structure (SMILES)	% activity [%]
C=CCNC(=O)c1nnc(S(C)(=O)=O)s1 [5-methylsulfonyl-1,3,4-thiadiazole-2-carboxylic acid-allylamide]	94
CN(C)C(=O)c1nnc(S(C)(=O)=O)s1 [5-methylsulfonyl-1,3,4-thiadiazole-2-carboxylic acid-dimethylamide]	98
C=CCNC(=O)c1nnc(S(=O)(=O)CCC)s1 [5-propylsulfonyl-1,3,4-thiadiazole-2-carboxylic acid-allylamide]	93
CCCS(=O)(=O)c1nnc(C(=O)N(C)C)s1 [5-propylsulfonyl-1,3,4-thiadiazole-2-carboxylic acid-dimethylamide]	93

tested on: Helminthosporium gramineum; assay: Seed treatment in open field tests for infestation by Helminthosporium gramineum (barley); type: in vivo; conditions: winter barley; 50 g active agent/100 kg barley; about 8 months
Method: Seed treatment in open field tests for infestation by Helminthosporium gramineum
The active agents were used in the form of pulverulent compositions. After about 8 months in case of winter barley and after about 3 months in case of summer barley the infested plants were counted and the activity was calculated by the formula [formula]

Structure (SMILES)	% activity [%]
CN(C)C(=O)c1nnc(S(C)(=O)=O)s1 [5-methylsulfonyl-1,3,4-thiadiazole-2-carboxylic acid-dimethylamide]	98

same assay, conditions: winter barley; 100 g active agent/100 kg barley; about 8 months

Structure (SMILES)	% activity [%]
CN(C)C(=O)c1nnc(S(C)(=O)=O)s1 [5-methylsulfonyl-1,3,4-thiadiazole-2-carboxylic acid-dimethylamide]	100

tested on: Plasmopara viticola; assay: Prophylactic leaf treatment of grapevines in the hothouse against Plasmopara viticola; type: in vivo; conditions: concentration of active agent 0.005 (unit not given)
Method: Effects of prophylactic leaf treatment of grapevines in the hothouse against Plasmopara viticola
Young grapevine plants having from 5 to 8 leaves were sprayed dripping wet with the concentrations of active agents stated in the table below. After drying of the spray deposit the leaves were sprayed with an aqueous suspension of sporangia of the fungus (about 20,000 per ml); the spraying was applied to the bottom side of the leaves. The plants were then immediately incubated in a hothouse at a temperature of 22° to 24° C. and at maximum water saturation in the atmosphere. Beginning with the second day the humidity of the air was reduced for 3 to 4 days to normal level (30 to 70% saturation) and was then maintained for another day on the level of full saturation. Subsequently, the percentage portion of the fungus infested surface of each leaf was noted and the average per treatment was calculated in order to determine the fungicidal activity. This was done on the basis of the following formula: [formula]
The active compounds were applied in the form of a 20% concentration spray powder.

Structure (SMILES)	% activity [%]
CCCS(=O)(=O)c1nnc(C(=O)N(C)C)s1 [5-propylsulfonyl-1,3,4-thiadiazole-2-carboxylic acid-dimethylamide]	75

same assay, conditions: concentration of active agent 0.025 (unit not given)

Structure (SMILES)	% activity [%]
CCCS(=O)(=O)c1nnc(C(=O)N(C)C)s1 [5-propylsulfonyl-1,3,4-thiadiazole-2-carboxylic acid-dimethylamide]	90

tested on: Helminthosporium gram; assay: not given; conditions: 20 g active agent per 100 kg; about 5 weeks

Structure (SMILES)	% activity [%]
CN(C)C(=O)c1nnc(S(C)(=O)=O)s1 [5-methylsulfonyl-1,3,4-thiadiazole-2-carboxylic acid-dimethylamide]	87

same assay, conditions: 50 g active agent per 100 kg; about 5 weeks

Structure (SMILES)	% activity [%]
C=CCNC(=O)c1nnc(S(C)(=O)=O)s1 [5-methylsulfonyl-1,3,4-thiadiazole-2-carboxylic acid-allylamide]	100
CN(C)C(=O)c1nnc(S(C)(=O)=O)s1 [5-methylsulfonyl-1,3,4-thiadiazole-2-carboxylic acid-dimethylamide]	98
CCCS(=O)(=O)c1nnc(C(=O)N(C)C)s1 [5-propylsulfonyl-1,3,4-thiadiazole-2-carboxylic acid-dimethylamide]	93

— patent US4281121A, “1,3,4-Thiadiazole-2-carboxylic acid derivatives, process for making the same and fungicidal and nematocidal compositions containing same” (Schering Aktiengesellschaft, priority 1978, dated 1981)
